Calls of active or inactive are those of the source. No rule for the calls is given here.
Test system: CCRIS mutagenicity, Ames/micronucleus/aberration tests
Experiment: CCRIS mutagenicity studies

## CN(C)c1ccccc1
End Point: IN VITRO CHROMOSOMAL ABERRATIONS, Test System: CHO CELLS, Metabolic Activation: NONE
  mutagenic call: active; positive; at highest dose
End Point: IN VITRO CHROMOSOMAL ABERRATIONS, Test System: CHO CELLS, Metabolic Activation: RAT, LIVER, S-9, AROCLOR 1254
  mutagenic call: active; positive
End Point: In vitro chromosomal aberrations, Test System: Chinese hamster lung (CHL/IU) cells, Metabolic Activation: Rat, Liver, S9, Phenobarbital and 5,6-benzoflavone
  mutagenic call: active; positive (structural changes and ploidy)
Test System: AMES SALMONELLA TYPHIMURIUM, Strain/Indicator: TA97, Metabolic Activation: HAMSTER, LIVER, S-9, AROCLOR 1254 (10 OR 30%), Method: PREINCUBATION
  mutagenic call: inactive; negative
Test System: AMES SALMONELLA TYPHIMURIUM, Strain/Indicator: TA97, Metabolic Activation: NONE, Method: PREINCUBATION
  mutagenic call: inactive; negative
Test System: AMES SALMONELLA TYPHIMURIUM, Strain/Indicator: TA97, Metabolic Activation: RAT, LIVER, S-9, AROCLOR 1254 (10 OR 30%), Method: PREINCUBATION
  mutagenic call: inactive; negative
Test System: AMES SALMONELLA TYPHIMURIUM, Strain/Indicator: TA98, Metabolic Activation: HAMSTER, LIVER, S-9, AROCLOR 1254 (10 OR 30%), Method: PREINCUBATION
  mutagenic call: inactive; negative
Test System: AMES SALMONELLA TYPHIMURIUM, Strain/Indicator: TA98, Metabolic Activation: HAMSTER, LIVER, S-9, AROCLOR 1254, Method: PREINCUBATION
  mutagenic call: inactive; negative
Test System: AMES SALMONELLA TYPHIMURIUM, Strain/Indicator: TA98, Metabolic Activation: HAMSTER, LIVER, S-9, PHENOBARBITAL AND BETA-NAPHTHOFLAVONE, Method: PREINCUBATION
  mutagenic call: inactive; negative
Test System: AMES SALMONELLA TYPHIMURIUM, Strain/Indicator: TA98, Metabolic Activation: RAT, LIVER, S-9, AROCLOR 1254 (10 OR 30%), Method: PREINCUBATION
  mutagenic call: inactive; negative
Test System: AMES SALMONELLA TYPHIMURIUM, Strain/Indicator: TA98, Metabolic Activation: RAT, LIVER, S-9, AROCLOR 1254, Method: PREINCUBATION
  mutagenic call: inactive; negative
Test System: AMES SALMONELLA TYPHIMURIUM, Strain/Indicator: TA100, Metabolic Activation: HAMSTER, LIVER, S-9, AROCLOR 1254 (10 OR 30%), Method: PREINCUBATION
  mutagenic call: inactive; negative
Test System: AMES SALMONELLA TYPHIMURIUM, Strain/Indicator: TA100, Metabolic Activation: HAMSTER, LIVER, S-9, AROCLOR 1254, Method: PREINCUBATION
  mutagenic call: inactive; negative
Test System: AMES SALMONELLA TYPHIMURIUM, Strain/Indicator: TA100, Metabolic Activation: HAMSTER, LIVER, S-9, PHENOBARBITAL AND BETA-NAPHTHOFLAVONE, Method: PREINCUBATION
  mutagenic call: inactive; negative
Test System: AMES SALMONELLA TYPHIMURIUM, Strain/Indicator: TA100, Metabolic Activation: RAT, LIVER, S-9, AROCLOR 1254 (10 OR 30%), Method: PREINCUBATION
  mutagenic call: inactive; negative
Test System: AMES SALMONELLA TYPHIMURIUM, Strain/Indicator: TA100, Metabolic Activation: RAT, LIVER, S-9, AROCLOR 1254, Method: PREINCUBATION
  mutagenic call: inactive; negative
Test System: AMES SALMONELLA TYPHIMURIUM, Strain/Indicator: TA102, Metabolic Activation: HAMSTER, LIVER, S-9, PHENOBARBITAL AND BETA-NAPHTHOFLAVONE, Method: PREINCUBATION
  mutagenic call: inactive; negative
Test System: AMES SALMONELLA TYPHIMURIUM, Strain/Indicator: TA102, Metabolic Activation: HAMSTER, LIVER, S-9, SODIUM PHENOBARBITAL AND 5,6-BENZOFLAVONE, Method: PREINCUBATION
  mutagenic call: inactive; negative
Test System: AMES SALMONELLA TYPHIMURIUM, Strain/Indicator: TA102, Metabolic Activation: NONE, Method: PREINCUBATION
  mutagenic call: inactive; negative
Test System: AMES SALMONELLA TYPHIMURIUM, Strain/Indicator: TA104, Metabolic Activation: HAMSTER, LIVER, S-9, PHENOBARBITAL AND BETA-NAPHTHOFLAVONE, Method: PREINCUBATION
  mutagenic call: inactive; negative
Test System: AMES SALMONELLA TYPHIMURIUM, Strain/Indicator: TA104, Metabolic Activation: HAMSTER, LIVER, S-9, SODIUM PHENOBARBITAL AND 5,6-BENZOFLAVONE, Method: PREINCUBATION
  mutagenic call: inactive; negative
Test System: AMES SALMONELLA TYPHIMURIUM, Strain/Indicator: TA104, Metabolic Activation: NONE, Method: PREINCUBATION
  mutagenic call: inactive; negative
Test System: AMES SALMONELLA TYPHIMURIUM, Strain/Indicator: TA1535, Metabolic Activation: HAMSTER, LIVER, S-9, AROCLOR 1254, Method: PREINCUBATION
  mutagenic call: inactive; negative
Test System: AMES SALMONELLA TYPHIMURIUM, Strain/Indicator: TA1535, Metabolic Activation: HAMSTER, LIVER, S-9, PHENOBARBITAL AND BETA-NAPHTHOFLAVONE, Method: PREINCUBATION
  mutagenic call: inactive; negative
Test System: AMES SALMONELLA TYPHIMURIUM, Strain/Indicator: TA1535, Metabolic Activation: NONE, Method: PREINCUBATION
  mutagenic call: inactive; negative
Test System: AMES SALMONELLA TYPHIMURIUM, Strain/Indicator: TA1535, Metabolic Activation: RAT, LIVER, S-9, AROCLOR 1254, Method: PREINCUBATION
  mutagenic call: inactive; negative
Test System: AMES SALMONELLA TYPHIMURIUM, Strain/Indicator: TA1537, Metabolic Activation: HAMSTER, LIVER, S-9, AROCLOR 1254, Method: PREINCUBATION
  mutagenic call: inactive; negative
Test System: AMES SALMONELLA TYPHIMURIUM, Strain/Indicator: TA1537, Metabolic Activation: HAMSTER, LIVER, S-9, PHENOBARBITAL AND BETA-NAPHTHOFLAVONE, Method: PREINCUBATION
  mutagenic call: inactive; negative
Test System: AMES SALMONELLA TYPHIMURIUM, Strain/Indicator: TA1537, Metabolic Activation: NONE, Method: PREINCUBATION
  mutagenic call: inactive; negative
Test System: AMES SALMONELLA TYPHIMURIUM, Strain/Indicator: TA1537, Metabolic Activation: RAT, LIVER, S-9, AROCLOR 1254, Method: PREINCUBATION
  mutagenic call: inactive; negative
Test System: E. COLI, Strain/Indicator: WP2UVRA/PKM101, Metabolic Activation: HAMSTER, LIVER, S-9, PHENOBARBITAL AND BETA-NAPHTHOFLAVONE, Method: PREINCUBATION
  mutagenic call: inactive; negative
Test System: E. COLI, Strain/Indicator: WP2UVRA/PKM101, Metabolic Activation: NONE, Method: PREINCUBATION
  mutagenic call: inactive; negative
Test System: E. COLI, Strain/Indicator: WP2UVRA, Metabolic Activation: HAMSTER, LIVER, S-9, PHENOBARBITAL AND BETA-NAPHTHOFLAVONE, Method: PREINCUBATION
  mutagenic call: inactive; negative
Test System: E. COLI, Strain/Indicator: WP2UVRA, Metabolic Activation: NONE, Method: PREINCUBATION
  mutagenic call: inactive; negative
Test System: MOUSE LYMPHOMA TYPHIMURIUM, Strain/Indicator: L5178Y (TK+/TK-), Metabolic Activation: RAT, LIVER, S-9, AROCLOR 1254, Method: SUSPENSION/PLATE
  mutagenic call: active; positive
Test System: MOUSE LYMPHOMA, Strain/Indicator: L5178Y (TK+/TK-), Metabolic Activation: NONE, Method: SUSPENSION/PLATE
  mutagenic call: active; positive
Test System: UDS RODENT HEPATOCYTES, Strain/Indicator: THY INCORP (NON-S-PHASE), Metabolic Activation: NONE, Method: AUTORADIOGRAPHY
  mutagenic call: inactive; negative

## CC1(C)C[C@@H]2[C@@]3(C(=O)O)C[C@@]3(C=O)C(C=O)=C[C@]2(O)C1
Test System: CHINESE HAMSTER V-79, Strain/Indicator: V-79/6-THIOGUANINE (HGPRT), Metabolic Activation: NONE
  mutagenic call: inactive; negative

## Cc1ccc(OS(=O)(=O)c2cccc3cccnc23)c([N+](=O)[O-])c1
Test System: AMES SALMONELLA TYPHIMURIUM, Strain/Indicator: TA98, Metabolic Activation: NONE, Method: STANDARD PLATE
  mutagenic call: active; positive
Test System: AMES SALMONELLA TYPHIMURIUM, Strain/Indicator: TA98, Metabolic Activation: RAT, LIVER, S-9, AROCLOR 1254, Method: STANDARD PLATE
  mutagenic call: active; positive
Test System: AMES SALMONELLA TYPHIMURIUM, Strain/Indicator: TA100, Metabolic Activation: NONE, Method: STANDARD PLATE
  mutagenic call: active; positive
Test System: AMES SALMONELLA TYPHIMURIUM, Strain/Indicator: TA100, Metabolic Activation: RAT, LIVER, S-9, AROCLOR 1254, Method: STANDARD PLATE
  mutagenic call: active; positive
Test System: AMES SALMONELLA TYPHIMURIUM, Strain/Indicator: TA1535, Metabolic Activation: NONE, Method: STANDARD PLATE
  mutagenic call: inactive; negative
Test System: AMES SALMONELLA TYPHIMURIUM, Strain/Indicator: TA1535, Metabolic Activation: RAT, LIVER, S-9, AROCLOR 1254, Method: STANDARD PLATE
  mutagenic call: inactive; negative
Test System: AMES SALMONELLA TYPHIMURIUM, Strain/Indicator: TA1537, Metabolic Activation: NONE, Method: STANDARD PLATE
  mutagenic call: active; positive
Test System: AMES SALMONELLA TYPHIMURIUM, Strain/Indicator: TA1537, Metabolic Activation: RAT, LIVER, S-9, AROCLOR 1254, Method: STANDARD PLATE
  mutagenic call: active; positive

## COc1ccc2c(c1)[C@@H]1CCCC[C@H]1C=C2
Test System: AMES SALMONELLA TYPHIMURIUM, Strain/Indicator: TA98, Metabolic Activation: RAT, LIVER, S-9, SODIUM PHENOBARBITAL AND BETA-NAPHTHOFLAVONE, Method: STANDARD PLATE
  mutagenic call: active; positive
Test System: AMES SALMONELLA TYPHIMURIUM, Strain/Indicator: TA100, Metabolic Activation: RAT, LIVER, S-9, SODIUM PHEOBARBITAL AND BETA-NAPHTHOFLAVONE, Method: STANDARD PLATE
  mutagenic call: active; positive

## CC/C1=C/[C@@H](C)[C@](C)(OC(C)=O)C(=O)OC/C2=C/CN(C)CC[C@@H](OC1=O)C2=O
Test System: UDS RAT HEPATOCYTES, Strain/Indicator: THY INCORP, Metabolic Activation: NONE, Method: AUTORADIOGRAPHY
  mutagenic call: active; positive

From PubChem BioAssay AID1259407 (Chemical Carcinogenesis Research Information System (CCRIS), 2018)
